From ChEMBL document CHEMBL1152560, “Substituted 2-arylbenzothiazoles as kinase inhibitors: hit-to-lead optimization” (Bioorg Med Chem, 2009)

How the values were obtained:
[1] = target: Glycogen synthase kinase-3 beta (Homo sapiens) (UniProt P49841); experiment: Residual activity of GSK3-beta at 1 uM by microplate scintillation counting
[2] = target: Serine/threonine-protein kinase WNK2 (Homo sapiens) (UniProt Q9Y3S1); experiment: Residual activity of WNK2 at 10 uM by microplate scintillation counting
[3] = target: Vascular endothelial growth factor receptor 2 (Homo sapiens, UniProt P35968); experiment: Residual activity of VEGFR2 at 10 uM by microplate scintillation counting
Chain of Vascular endothelial growth factor receptor 2 (P35968 whole entry): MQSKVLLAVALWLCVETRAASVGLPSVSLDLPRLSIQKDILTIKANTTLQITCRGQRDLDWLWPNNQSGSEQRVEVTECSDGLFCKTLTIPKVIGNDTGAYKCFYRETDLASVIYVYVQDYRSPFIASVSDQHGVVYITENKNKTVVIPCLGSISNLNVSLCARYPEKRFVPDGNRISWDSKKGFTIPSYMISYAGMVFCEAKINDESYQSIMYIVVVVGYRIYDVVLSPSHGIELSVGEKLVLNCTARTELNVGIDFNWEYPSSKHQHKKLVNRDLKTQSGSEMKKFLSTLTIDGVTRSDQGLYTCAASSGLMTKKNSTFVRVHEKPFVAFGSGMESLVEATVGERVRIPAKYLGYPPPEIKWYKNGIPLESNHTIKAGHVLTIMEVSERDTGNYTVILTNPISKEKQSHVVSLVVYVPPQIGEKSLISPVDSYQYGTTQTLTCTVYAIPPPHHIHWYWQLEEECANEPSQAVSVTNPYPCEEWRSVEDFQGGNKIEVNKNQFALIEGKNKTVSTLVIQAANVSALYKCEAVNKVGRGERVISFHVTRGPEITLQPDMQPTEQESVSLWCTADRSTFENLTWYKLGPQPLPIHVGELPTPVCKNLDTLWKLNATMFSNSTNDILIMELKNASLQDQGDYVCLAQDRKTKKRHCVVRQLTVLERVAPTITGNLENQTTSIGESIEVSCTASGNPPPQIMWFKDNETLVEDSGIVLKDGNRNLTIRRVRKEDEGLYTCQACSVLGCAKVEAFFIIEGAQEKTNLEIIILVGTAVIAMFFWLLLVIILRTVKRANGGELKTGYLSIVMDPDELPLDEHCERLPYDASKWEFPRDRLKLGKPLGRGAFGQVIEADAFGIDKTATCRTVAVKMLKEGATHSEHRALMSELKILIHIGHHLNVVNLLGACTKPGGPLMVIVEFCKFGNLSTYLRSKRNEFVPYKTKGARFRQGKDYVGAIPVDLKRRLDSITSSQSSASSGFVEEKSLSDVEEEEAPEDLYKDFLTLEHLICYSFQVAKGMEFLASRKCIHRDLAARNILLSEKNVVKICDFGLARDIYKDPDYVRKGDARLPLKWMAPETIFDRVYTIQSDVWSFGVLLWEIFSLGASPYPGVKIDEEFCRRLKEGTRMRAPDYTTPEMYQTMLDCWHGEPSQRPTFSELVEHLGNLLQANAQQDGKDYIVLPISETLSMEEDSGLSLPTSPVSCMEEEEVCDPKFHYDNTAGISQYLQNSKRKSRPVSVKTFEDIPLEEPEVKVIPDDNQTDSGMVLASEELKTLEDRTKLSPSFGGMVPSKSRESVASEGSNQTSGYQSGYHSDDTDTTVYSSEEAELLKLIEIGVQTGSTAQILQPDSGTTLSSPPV

[4] = test system: T1, Dual specificity mitogen-activated protein kinase kinase 6 (Homo sapiens), P52564 [S207D,T211D]; experiment: Residual activity of MKK6 S207D/T211D mutant at 1 uM by microplate scintillation counting
T1 sequence (whole entry): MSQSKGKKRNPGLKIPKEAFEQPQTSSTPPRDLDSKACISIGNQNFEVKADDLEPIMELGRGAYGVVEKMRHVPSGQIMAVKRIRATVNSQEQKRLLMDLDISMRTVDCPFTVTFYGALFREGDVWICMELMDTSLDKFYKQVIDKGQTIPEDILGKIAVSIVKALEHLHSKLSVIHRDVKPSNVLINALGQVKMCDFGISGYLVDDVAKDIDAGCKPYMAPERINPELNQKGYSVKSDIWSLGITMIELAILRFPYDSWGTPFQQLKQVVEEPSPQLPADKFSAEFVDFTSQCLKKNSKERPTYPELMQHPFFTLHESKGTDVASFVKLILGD

[5] = target: Serine/threonine-protein kinase PAK 5 (Homo sapiens) (UniProt Q9P286); experiment: Residual activity of PAK7 at 0.1 uM by microplate scintillation counting
[6] = target: Macrophage-stimulating protein receptor (Homo sapiens) (UniProt Q04912); experiment: Residual activity of RON at 1 uM by microplate scintillation counting
Chain of Macrophage-stimulating protein receptor (Homo sapiens) (Q04912 25-304 limits assumed): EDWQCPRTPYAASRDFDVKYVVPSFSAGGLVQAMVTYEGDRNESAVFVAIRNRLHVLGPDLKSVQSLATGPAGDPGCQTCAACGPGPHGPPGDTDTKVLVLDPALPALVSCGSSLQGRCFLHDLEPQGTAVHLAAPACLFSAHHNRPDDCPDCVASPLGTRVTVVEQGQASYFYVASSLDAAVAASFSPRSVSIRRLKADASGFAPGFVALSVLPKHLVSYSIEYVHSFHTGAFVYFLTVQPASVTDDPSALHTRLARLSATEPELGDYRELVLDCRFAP
Chain of Macrophage-stimulating protein receptor (Homo sapiens) (Q04912 310-1400 limits assumed): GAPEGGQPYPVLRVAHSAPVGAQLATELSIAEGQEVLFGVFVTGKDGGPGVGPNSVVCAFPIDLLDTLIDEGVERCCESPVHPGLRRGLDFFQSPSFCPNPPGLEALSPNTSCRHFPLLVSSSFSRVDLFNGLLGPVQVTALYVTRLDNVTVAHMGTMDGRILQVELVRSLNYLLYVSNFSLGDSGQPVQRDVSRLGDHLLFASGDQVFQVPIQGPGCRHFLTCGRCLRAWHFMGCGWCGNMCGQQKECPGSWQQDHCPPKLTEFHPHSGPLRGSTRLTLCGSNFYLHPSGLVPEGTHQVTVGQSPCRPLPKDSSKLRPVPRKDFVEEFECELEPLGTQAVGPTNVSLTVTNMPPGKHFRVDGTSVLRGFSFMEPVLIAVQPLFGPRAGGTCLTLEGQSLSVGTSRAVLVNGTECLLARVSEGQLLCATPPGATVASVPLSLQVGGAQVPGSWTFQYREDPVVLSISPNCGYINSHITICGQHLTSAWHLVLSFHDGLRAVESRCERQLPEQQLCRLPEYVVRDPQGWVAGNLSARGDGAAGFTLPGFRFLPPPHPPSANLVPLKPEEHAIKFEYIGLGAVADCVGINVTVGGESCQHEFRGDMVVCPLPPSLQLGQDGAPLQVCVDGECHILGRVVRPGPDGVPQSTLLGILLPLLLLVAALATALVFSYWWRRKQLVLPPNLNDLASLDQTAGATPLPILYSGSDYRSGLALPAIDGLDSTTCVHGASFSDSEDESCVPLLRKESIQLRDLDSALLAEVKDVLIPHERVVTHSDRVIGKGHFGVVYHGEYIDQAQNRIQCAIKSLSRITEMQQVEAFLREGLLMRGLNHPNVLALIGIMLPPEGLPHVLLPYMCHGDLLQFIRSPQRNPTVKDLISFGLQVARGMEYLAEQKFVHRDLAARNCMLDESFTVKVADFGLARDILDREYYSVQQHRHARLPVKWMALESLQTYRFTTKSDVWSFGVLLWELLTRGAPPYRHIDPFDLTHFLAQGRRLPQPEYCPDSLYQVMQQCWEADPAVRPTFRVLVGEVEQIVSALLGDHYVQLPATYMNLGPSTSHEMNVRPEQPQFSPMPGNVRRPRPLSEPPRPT

[7] = target: Casein kinase I isoform gamma-3 (Homo sapiens) (UniProt Q9Y6M4); experiment: Residual activity of CK1gamma3 at 0.1 uM by microplate scintillation counting
[8] = target: Tyrosine-protein kinase HCK (Homo sapiens) (UniProt P08631); experiment: Residual activity of HCK at 0.1 uM by microplate scintillation counting
[9] = target: Mitogen-activated protein kinase 9 (Homo sapiens) (UniProt P45984); experiment: Residual activity of JNK2 at 10 uM by microplate scintillation counting
Chain of Mitogen-activated protein kinase 9 (Homo sapiens) (P45984 whole entry, looked up): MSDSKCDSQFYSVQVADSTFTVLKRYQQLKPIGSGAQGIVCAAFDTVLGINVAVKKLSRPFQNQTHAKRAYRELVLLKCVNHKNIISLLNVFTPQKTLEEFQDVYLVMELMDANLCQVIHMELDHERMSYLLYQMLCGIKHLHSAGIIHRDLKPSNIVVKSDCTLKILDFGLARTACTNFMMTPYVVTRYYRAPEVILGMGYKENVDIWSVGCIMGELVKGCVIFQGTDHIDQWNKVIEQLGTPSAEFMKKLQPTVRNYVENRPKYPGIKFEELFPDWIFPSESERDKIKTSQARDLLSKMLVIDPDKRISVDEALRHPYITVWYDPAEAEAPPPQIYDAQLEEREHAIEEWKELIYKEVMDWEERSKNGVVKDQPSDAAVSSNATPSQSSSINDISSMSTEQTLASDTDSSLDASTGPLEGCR

[10] = test system: T2, Receptor-type tyrosine-protein kinase FLT3 (Homo sapiens), P36888 [D835Y]; experiment: Residual activity of FLT3 D835Y mutant at 10 uM by microplate scintillation counting
T2 sequence (whole entry): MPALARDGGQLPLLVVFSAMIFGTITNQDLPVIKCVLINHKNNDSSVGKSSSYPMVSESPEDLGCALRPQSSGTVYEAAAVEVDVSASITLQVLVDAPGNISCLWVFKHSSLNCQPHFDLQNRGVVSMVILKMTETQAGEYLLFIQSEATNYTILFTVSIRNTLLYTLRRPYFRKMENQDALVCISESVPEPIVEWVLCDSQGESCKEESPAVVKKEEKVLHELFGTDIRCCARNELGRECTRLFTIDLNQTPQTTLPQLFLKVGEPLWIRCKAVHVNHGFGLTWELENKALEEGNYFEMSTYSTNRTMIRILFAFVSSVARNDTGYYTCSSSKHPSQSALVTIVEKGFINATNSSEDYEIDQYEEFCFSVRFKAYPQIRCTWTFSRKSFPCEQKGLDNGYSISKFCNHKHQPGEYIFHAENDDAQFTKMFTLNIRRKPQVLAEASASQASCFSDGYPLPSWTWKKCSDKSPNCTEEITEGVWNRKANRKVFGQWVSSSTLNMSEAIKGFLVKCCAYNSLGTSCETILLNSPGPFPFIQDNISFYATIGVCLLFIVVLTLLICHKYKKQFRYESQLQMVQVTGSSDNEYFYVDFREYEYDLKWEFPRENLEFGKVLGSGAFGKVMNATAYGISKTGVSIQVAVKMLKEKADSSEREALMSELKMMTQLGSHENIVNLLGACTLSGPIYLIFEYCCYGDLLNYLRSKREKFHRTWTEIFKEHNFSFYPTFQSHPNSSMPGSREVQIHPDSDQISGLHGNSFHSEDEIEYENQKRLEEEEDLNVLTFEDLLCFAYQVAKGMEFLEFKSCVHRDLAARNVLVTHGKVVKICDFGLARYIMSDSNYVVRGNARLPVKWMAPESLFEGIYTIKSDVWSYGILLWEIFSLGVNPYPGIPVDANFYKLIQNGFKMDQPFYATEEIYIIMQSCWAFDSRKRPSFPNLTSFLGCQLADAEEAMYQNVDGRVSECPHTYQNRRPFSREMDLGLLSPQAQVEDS

[11] = target: Hepatocyte growth factor receptor (Homo sapiens) (UniProt P08581); experiment: Residual activity of MET at 10 uM by microplate scintillation counting
Chain of Hepatocyte growth factor receptor (Homo sapiens) (P08581 whole entry): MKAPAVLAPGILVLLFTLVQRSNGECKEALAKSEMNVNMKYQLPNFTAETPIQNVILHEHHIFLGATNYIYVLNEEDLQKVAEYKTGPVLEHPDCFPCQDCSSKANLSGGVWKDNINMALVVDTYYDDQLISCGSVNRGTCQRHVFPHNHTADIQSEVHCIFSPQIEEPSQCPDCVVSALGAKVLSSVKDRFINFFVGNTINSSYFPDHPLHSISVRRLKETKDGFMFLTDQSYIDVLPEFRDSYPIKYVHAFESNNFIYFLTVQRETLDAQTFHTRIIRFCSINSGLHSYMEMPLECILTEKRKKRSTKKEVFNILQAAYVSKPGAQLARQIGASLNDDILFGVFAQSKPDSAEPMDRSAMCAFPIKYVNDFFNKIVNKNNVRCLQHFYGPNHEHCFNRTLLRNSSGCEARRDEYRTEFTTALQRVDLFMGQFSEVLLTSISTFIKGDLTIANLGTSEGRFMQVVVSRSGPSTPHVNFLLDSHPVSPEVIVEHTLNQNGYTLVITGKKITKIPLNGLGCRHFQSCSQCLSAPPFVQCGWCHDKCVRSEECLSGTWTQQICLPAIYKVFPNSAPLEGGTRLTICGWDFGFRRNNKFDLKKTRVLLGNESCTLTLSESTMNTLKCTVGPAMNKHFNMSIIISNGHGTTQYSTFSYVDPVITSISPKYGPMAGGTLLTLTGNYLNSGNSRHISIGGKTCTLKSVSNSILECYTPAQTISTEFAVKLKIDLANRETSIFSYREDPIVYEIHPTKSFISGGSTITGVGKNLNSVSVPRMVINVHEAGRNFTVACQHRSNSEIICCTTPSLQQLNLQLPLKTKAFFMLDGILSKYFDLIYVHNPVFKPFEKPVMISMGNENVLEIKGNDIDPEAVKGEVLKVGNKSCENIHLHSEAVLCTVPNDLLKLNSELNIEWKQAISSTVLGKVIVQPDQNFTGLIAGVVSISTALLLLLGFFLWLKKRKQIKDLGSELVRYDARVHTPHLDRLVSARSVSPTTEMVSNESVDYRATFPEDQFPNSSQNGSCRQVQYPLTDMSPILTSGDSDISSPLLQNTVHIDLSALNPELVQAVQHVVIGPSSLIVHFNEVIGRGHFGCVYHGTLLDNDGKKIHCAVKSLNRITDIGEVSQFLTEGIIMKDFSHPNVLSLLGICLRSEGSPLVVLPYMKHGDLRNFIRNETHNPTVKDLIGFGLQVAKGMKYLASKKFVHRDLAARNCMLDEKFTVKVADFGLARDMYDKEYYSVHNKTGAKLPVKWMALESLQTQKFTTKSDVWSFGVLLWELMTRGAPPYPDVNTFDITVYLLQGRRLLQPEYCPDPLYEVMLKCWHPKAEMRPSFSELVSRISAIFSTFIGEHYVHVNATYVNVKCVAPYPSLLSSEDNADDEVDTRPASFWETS

[12] = target: Cyclin-dependent kinase 2/cyclin E1 (Homo sapiens) (UniProt P24864+P24941); experiment: Residual activity of CDK2/Cyclin E at 1 uM by microplate scintillation counting; type: protein-complex assay
[13] = target: PAS domain-containing serine/threonine-protein kinase (Homo sapiens) (UniProt Q96RG2); experiment: Residual activity of PASK at 0.1 uM by microplate scintillation counting
[14] = target: T3, Serine/threonine-protein kinase VRK1 (Homo sapiens) (UniProt Q99986); experiment: Residual activity of VRK1 at 10 uM by microplate scintillation counting
T3 sequence (whole entry): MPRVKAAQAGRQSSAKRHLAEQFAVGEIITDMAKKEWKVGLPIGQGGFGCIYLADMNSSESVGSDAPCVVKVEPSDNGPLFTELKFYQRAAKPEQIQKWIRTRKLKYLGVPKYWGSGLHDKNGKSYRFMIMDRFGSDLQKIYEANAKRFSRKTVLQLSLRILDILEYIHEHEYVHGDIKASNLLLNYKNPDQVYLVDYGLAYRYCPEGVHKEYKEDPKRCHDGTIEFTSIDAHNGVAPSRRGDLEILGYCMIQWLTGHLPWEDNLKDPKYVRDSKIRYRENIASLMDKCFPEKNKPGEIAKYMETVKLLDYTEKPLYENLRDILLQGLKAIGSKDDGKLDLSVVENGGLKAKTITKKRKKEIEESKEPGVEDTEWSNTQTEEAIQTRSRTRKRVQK

[15] = target: Platelet-derived growth factor receptor alpha (Homo sapiens) (UniProt P16234); experiment: Residual activity of PDGFRalpha at 0.1 uM by microplate scintillation counting

Chain of Glycogen synthase kinase-3 beta (Homo sapiens) (P49841 whole entry, looked up): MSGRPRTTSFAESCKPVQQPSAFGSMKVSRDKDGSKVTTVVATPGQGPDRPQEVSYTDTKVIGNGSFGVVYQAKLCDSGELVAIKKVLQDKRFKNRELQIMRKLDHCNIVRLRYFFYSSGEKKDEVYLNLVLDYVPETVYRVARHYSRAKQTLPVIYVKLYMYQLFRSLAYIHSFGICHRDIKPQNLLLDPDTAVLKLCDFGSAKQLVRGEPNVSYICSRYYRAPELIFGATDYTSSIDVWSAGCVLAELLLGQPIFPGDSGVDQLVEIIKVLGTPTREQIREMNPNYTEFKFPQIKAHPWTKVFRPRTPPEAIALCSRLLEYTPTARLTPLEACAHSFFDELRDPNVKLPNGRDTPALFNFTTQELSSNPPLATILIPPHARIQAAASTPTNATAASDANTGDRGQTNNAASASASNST

residual activity [1] | residual activity [2] | residual activity [3] | residual activity [4] | residual activity [5] | residual activity [6] | residual activity [7] | residual activity [8] | residual activity [9] | residual activity [10] | residual activity [11] | residual activity [12] | residual activity [13] | residual activity [14] | residual activity [15] | SMILES
91% | 6% | 5% | 100% | 92% | 60% | 94% | 97% | 93% | 48% | 17% | 94% | 99% | 135% | 86% | COc1cc2c(Oc3ccc(-c4nc5ccccc5s4)cc3)ncnc2cc1OCCCN1CCCC1
93% | 27% | 5% | 103% | 84% | 35% | 90% | 115% | 122% | 18% | 8% | 94% | 89% | 126% | 94% | COc1cc2c(Oc3ccc(-c4nc5ccccc5s4)cc3F)ncnc2cc1OCCCN1CCN(C)CC1
84% | 12% | 6% | 84% | 80% | 48% | 76% | 96% | 96% | 19% | 12% | 102% | 92% | 127% | 86% | COc1cc2c(Oc3ccc(-c4nc5ccccc5s4)cc3)ncnc2cc1OCCCN1CCN(C)CC1
